Patent US20230320956A1, “DIARYLALKANE COMPOUNDS AND COMPOSITIONS FOR USE WITH SKIN AGING AND METHODS OF PRODUCTION THEREOF” (Unigen, Inc., priority 2022, published 2023)

Key:
[1] = test system: skin blotchiness/age spots, Caucasian subjects; test: Self-assessment of skin blotchiness/age spots, Caucasian subjects; assay type: in vivo, human; conditions: Week 8
Description: Skin Blotchiness/Age Spots (Caucasian subjects): In order to determine any changes in skin blotchiness/age spots, chroma was analyzed by Visia CR®. The degree to which a color is free from being mixed with other colors is a good indication of its chromacity. An increase in the chroma score represented an improvement in skin blotchiness/age spots. A decrease represented a worsening. At each visit, Caucasian subjects rated their skin blotchiness/age spots according to the following scale: 0—No skin blotchiness or age spots visible, 1-3—Slight areas of skin blotchiness or age spots visible, 4-6—Moderate areas of skin blotchiness or age spots visible, 7-9—Severe areas of skin blotchiness or age spots visible. Additionally, at the final visit, subjects completed a questionnaire. There were no significant changes to skin blotchiness/age spots as assessed by the Visia CR® analysis at any of the clinic visits, although the Mean Score for skin blotchiness/age spots trended toward an increase at all 2, 4, and 8 weeks after starting dimethoxytolyl propylresorcinol use compared to Baseline, indicating an improvement in skin blotchiness/age spots (Table 27).

[2] = test system: skin brightness/luminance, Asian subjects; test: Self-assessment of skin brightness/luminance, Asian subjects; assay type: in vivo, human; conditions: Week 8
Description: Included subjects were: • 1. Female subjects between the ages of 35-66 (inclusive) in general good health • 2. Asian subjects who had skin brightness/luminance score of “5” (moderately dull/sallow appearance) or greater on the face (for qualification only) as assessed by a trained technician and whose brightness/luminance were evaluated according to the following scale: 0—No dullness/sallowness visible, 1-3—Slightly dull/sallow appearance, 4-6—Moderately dull/sallow appearance, 7-9—Severely dull/sallow appearance. • 3. […] Individuals who could read, understand, and sign the Informed Consent form. • 5. […] At all visits, a trained technician evaluated the face of each subject for irritation. […] Results: Skin brightness/luminance (Asian subjects): In order to determine any changes in skin brightness/luminance, skin brightness (luminosity) was analyzed by Visia CR®. Facial luminance was a single number calculated based on the uniformity of the lightening of the image. […] There were no significant changes to brightness/luminance as assessed by the Visia CR® analysis at any of the clinic visits, although the Mean Score for skin brightness/luminance trended toward an increase at 4 and 8 weeks after starting dimethoxytolyl propylresorcinol use compared to Baseline (Table 24), indicating an improvement in skin brightness/luminance.

COc1ccc(CCCc2ccc(O)cc2O)c(OC)c1C [dimethoxytolyl propylresorcinol, 1-(3-methyl-2,4-dimethoxyphenyl)-3-(2′,4′-dihydroxyphenyl)-propane]
Self-Assessment Skin Blotchiness/Age Spots % Improvement from Baseline [1]: 37%
Self-Assessment Skin Brightness/Luminance % Improvement from Baseline [2]: 13%
